Results taken from patent US10568992B2, “Peptides for supporting endothelial progenitor cell rolling and capture and endothelialization of biomaterials” (Auburn University, priority 2015, dated 2020).
Bridges are numbered along the chain shown (N, C = ends). Where no end group is shown, it is not given here.

Key:
[1] = tested on: endothelial colony forming cells (ECFCs); assay: ECFC rolling on peptide-grafted PEG hydrogels under shear (parallel plate flow chamber); format: cell-based; parameters: ECFC rolling velocity: unit not given here; conditions: for rolling velocities of ECFCs: FIG. 13A; for rolling velocities of ECFCs / ECFC rolling velocity / ECFC rolling velocities: mean±SD (n=3); for ECFC rolling velocity: 0.7 μmol/mL PEG-peptide grafted hydrogel; for support of ECFC rolling (velocity below rolling cutoff, 40% of average fluid velocity): shear rates 20-120 s^−1; for ECFC rolling velocities: FIG. 15A
Description: (§1) Umbilical cord blood ECFCs were used in this study. To create the peptide-grafted PEG surfaces, PEG-DA was first photopolymerized to form a hydrogel base. Peptides were conjugated to acryloyl-PEG-SVA to produced the PEG-peptides, and 0.7 μmol/mL of each PEG-peptide was grafted onto the surface of the PEG hydrogel base. Shear experiments were performed to examine ECFC rolling and adhesion on the hydrogel surfaces. Using a Glycotech parallel plate flow chamber, the ECFC cell suspension was sheared over the hydrogels at shear rates of 20 s^−1, 40 s^−1, 80 s^−1, and 120 s^−1. Cell rolling events were recorded at 70 fps using a high speed camera. Cell tracking was performed using ImageJ and Matlab to determine rolling velocities. Finally ECFC retention on the RGDSQ ID NO:3)-grafted PEG hydrogels was quantified under superphysiological shear stress.
To form the PEG-peptide grafting solution, the acryloyl-PEG-peptide was first dissolved in sterile PBS at the desired concentration (ranging from 0.7 mM to 5.6 mM) and the photoinitiator was added as described above. After each PEGDA hydrogel was photocrosslinked, the top plate of the mold was removed. The hydrogels were rinsed with sterile PBS and briefly dried with a stream of nitrogen to remove excess PBS on the surface of the hydrogel. The mold's 0.5 mm PDMS spacers were replaced with 0.7 mm PDMS spacers and a clean glass slide was placed on top. Then the PEG-peptide grafting solution was injected between the hydrogel and the new piece of glass and photocrosslinked to the top of the PEGDA hydrogel under the UV lamp for 7 min. PEG-peptide grafted hydrogels were then rinsed and swollen in sterile PBS for experiments.
To identify whether a cell is rolling, the upper velocity cutoff was determined by flowing ECFCs across the surface of control PEG hydrogels at different shear rates. Using video recordings, ECFC rotation on the focal plane of PEG hydrogels was observed. […] Therefore, based on these experiments, 40% of average fluid flow velocity was used as the cutoff velocity for cell rolling as is shown in FIG. 12.

[2] = tested on: endothelial colony forming cells (ECFCs); assay: ECFC capture on peptide-grafted PEG hydrogels under shear; format: cell-based; conditions: 20 s^−1; for ECFC capture events (in words): low shear rate; for ECFCs captured (captured cells normalized to total cells interacting with hydrogel surface): 2 min recordings, total 0.7 μmol/mL peptide grafted (combinations 0.35/0.35 μmol/mL), mean±SD (n=3)
Description: as §1
Cell capture events were consistently observed on CRRETAWAC (SEQ ID NO:1)- and PRb (SEQ ID NO:18)-grafted hydrogels at 20 s^−1. Number of captured cells were counted and normalized to the total number of cells interacted with each hydrogel surface. During each of the 2 min recordings, 3.74%±1.0% of ECFCs were captured on CRRETAWAC (SEQ ID NO:1)-grafted hydrogels and 1.14%±0.2% of ECFCs were captured on PRb-grafted hydrogels FIG. 9. Since both of these novel peptides are specific for the integrin α5β1, the result of this study strongly supports that α5β1 is responsible for cell capture.
To further evaluate the potential use of CRRETAWAC (SEQ ID NO:1) and PRb in the ECFC capture for endothelialization, ECFC rolling on hydrogels that were grafted with combinations of CRRETAWAC (SEQ ID NO:1) or PRb (SEQ ID NO:18) with REDV (SEQ ID NO:2) was assessed. In order to maintain consistent grafting of peptides, a final concentrations of 0.7 μmol/mL of equal molar mixtures of acryloyl-PEG-peptides precursors were grafted onto the surface of PEG hydrogels.

[3] = tested on: endothelial colony forming cells (ECFCs); assay: Adhesion of ECFCs on peptide-grafted PEG hydrogels (static); format: cell-based; conditions: for ECFC monolayer formation and cobble stone morphology: peptide-grafted hydrogels; for ECFC adhesion and spreading: after 24 hours
Excerpt: ECFC adhesion on (A) CRRETAWAC (SEQ ID NO:1)-(B) PRb ([…]), —(C) P11 (SEQ ID NO: 11)-grafted PEG hydrogels.
Adhesion of ECFCs on CRRETAWAC (SEQ ID NO:1)-, PRb (SEQ ID NO:18)-, P11 (SEQ ID NO: 11)-grafted hydrogels was first accessed. […] On P11-grafted hydrogels, ECFCs aggregated to form adherent cell clumps. […] Without the ability to support cell spreading and the formation of monolayer, P11 alone could not support ECFC endothelialization which is critical for healing damaged and diseased blood vessels.

αvβ3 integrin = αvβ3 integrin (Homo sapiens, UniProt P05106+P06756); conditions: among 12 HXXXHK hexapeptides; cited from earlier work
Sequence of αvβ3 integrin (P06756 31-889 limits assumed): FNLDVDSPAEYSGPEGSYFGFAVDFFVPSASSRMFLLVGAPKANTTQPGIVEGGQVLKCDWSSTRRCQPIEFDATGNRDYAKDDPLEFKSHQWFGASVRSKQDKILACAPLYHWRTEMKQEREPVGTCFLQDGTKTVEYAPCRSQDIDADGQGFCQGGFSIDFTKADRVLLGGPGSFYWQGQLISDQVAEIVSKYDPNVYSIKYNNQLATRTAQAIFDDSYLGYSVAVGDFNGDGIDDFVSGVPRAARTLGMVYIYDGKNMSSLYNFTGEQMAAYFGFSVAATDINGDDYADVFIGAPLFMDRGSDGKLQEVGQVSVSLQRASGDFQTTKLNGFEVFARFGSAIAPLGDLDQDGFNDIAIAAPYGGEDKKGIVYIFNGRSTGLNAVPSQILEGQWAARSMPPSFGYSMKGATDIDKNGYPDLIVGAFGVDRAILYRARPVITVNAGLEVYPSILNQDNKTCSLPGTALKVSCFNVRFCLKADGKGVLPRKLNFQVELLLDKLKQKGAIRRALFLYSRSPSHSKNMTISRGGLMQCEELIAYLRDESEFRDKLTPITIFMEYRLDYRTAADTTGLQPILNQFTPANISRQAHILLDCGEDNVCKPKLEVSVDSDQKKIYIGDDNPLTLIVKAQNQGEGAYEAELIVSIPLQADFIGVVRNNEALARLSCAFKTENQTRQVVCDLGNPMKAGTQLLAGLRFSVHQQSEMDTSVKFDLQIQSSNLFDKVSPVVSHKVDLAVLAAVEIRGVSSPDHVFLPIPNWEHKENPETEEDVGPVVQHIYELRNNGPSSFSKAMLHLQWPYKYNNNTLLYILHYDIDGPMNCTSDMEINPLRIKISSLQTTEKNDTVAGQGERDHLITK
Sequence of αvβ3 integrin (P06756 891-1048 partner limits assumed): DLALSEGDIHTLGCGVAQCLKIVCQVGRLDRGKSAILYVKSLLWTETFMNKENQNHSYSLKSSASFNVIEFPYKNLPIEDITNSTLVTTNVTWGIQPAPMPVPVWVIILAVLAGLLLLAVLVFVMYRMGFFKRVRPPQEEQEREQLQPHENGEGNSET
Sequence of αvβ3 integrin (P05106 27-788): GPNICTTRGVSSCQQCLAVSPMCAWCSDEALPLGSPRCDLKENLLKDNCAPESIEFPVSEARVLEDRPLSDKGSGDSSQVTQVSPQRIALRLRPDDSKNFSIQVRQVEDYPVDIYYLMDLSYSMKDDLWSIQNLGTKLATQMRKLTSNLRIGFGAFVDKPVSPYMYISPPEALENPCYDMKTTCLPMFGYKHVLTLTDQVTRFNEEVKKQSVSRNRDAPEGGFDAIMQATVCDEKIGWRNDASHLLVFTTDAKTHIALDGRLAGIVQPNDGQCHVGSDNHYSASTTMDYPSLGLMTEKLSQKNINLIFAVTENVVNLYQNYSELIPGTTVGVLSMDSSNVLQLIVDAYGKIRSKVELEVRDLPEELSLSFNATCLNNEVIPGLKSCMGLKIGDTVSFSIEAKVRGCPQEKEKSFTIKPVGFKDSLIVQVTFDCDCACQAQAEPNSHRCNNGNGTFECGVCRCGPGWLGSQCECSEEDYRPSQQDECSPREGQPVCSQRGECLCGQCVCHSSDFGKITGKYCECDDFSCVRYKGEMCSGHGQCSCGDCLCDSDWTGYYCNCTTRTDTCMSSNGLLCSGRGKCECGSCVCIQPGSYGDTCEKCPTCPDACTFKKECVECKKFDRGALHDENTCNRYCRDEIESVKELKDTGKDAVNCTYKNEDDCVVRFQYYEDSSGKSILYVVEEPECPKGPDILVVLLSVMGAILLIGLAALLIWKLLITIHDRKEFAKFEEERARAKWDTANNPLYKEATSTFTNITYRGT

integrin α5β1 = integrin α5β1 (Homo sapiens, UniProt P05556+P08648); conditions: among the non-RGD containing peptides of the library; cited from earlier work
Sequence of integrin α5β1 (P08648 42-894 limits assumed): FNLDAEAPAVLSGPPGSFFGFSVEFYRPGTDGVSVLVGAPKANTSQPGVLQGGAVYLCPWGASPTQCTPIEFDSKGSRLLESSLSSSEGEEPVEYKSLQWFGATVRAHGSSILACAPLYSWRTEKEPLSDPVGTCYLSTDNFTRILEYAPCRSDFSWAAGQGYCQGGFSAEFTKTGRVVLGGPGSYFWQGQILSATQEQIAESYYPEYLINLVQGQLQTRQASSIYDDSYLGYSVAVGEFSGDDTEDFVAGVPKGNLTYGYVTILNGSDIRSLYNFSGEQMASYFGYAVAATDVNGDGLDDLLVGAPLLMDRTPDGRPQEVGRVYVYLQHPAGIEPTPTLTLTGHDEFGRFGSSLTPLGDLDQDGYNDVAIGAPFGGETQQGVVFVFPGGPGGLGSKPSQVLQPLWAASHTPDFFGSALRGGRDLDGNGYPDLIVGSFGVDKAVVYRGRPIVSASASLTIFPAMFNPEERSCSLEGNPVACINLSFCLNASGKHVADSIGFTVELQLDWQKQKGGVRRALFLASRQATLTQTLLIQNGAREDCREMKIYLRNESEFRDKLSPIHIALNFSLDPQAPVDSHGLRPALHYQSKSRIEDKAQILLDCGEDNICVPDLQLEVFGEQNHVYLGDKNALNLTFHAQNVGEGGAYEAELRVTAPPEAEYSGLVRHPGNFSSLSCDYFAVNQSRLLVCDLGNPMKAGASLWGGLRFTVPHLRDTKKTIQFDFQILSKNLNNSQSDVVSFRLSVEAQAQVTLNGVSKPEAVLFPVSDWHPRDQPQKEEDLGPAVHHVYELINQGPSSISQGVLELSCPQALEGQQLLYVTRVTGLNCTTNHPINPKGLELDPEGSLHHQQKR
Sequence of integrin α5β1 (P08648 895-1049 partner limits assumed): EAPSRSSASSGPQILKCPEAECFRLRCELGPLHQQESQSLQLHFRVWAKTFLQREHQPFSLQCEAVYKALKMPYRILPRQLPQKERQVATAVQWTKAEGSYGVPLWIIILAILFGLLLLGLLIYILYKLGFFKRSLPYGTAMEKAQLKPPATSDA
Sequence of integrin α5β1 (P05556 21-798): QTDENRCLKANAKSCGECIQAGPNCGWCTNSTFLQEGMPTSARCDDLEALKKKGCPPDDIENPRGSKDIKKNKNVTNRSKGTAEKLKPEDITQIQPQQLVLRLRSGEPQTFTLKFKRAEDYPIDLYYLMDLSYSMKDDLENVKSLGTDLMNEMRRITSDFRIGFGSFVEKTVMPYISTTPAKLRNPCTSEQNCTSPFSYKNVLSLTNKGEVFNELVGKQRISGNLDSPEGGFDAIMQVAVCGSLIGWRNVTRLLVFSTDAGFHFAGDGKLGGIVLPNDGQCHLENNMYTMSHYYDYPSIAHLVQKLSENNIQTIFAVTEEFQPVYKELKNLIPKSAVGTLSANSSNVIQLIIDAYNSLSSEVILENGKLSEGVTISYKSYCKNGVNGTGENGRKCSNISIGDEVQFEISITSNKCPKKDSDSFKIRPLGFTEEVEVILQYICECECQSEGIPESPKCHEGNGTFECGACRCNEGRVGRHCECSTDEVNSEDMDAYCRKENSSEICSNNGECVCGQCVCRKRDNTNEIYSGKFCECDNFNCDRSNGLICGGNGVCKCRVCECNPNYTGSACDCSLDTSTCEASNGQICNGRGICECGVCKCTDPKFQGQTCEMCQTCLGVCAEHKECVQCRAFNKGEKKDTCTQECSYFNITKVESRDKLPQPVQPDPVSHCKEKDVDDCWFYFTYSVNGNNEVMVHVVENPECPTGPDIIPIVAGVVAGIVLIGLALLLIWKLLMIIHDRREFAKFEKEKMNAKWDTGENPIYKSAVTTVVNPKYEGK

Row | Substance | rolling velocities of ECFCs ([1]; 20 s^−1) | rolling velocities of ECFCs ([1]; 40 s^−1) | rolling velocities of ECFCs ([1]; 80 s^−1) | rolling velocities of ECFCs ([1]; 120 s^−1) | ECFC rolling velocity ([1]; shear rate 20 1/s) | ECFC rolling velocity ([1]; shear rate 40 1/s) | ECFC rolling velocity ([1]; shear rate 80 1/s) | ECFC rolling velocity ([1]; shear rate 120 1/s) | support of ECFC rolling (velocity below rolling cutoff, 40% of average fluid velocity) [1] | ECFC capture events (in words) [2] | ECFC monolayer formation and cobble stone morphology [3] | ECFC rolling velocities ([1]; 20 s^−1) | ECFC rolling velocities ([1]; 40 s^−1) | ECFC rolling velocities ([1]; 80 s^−1) | ECFC rolling velocities ([1]; 120 s^−1) | ECFC adhesion and spreading [3] | competition with fluorescently labeled VN for αvβ3 (αvβ3 integrin) | ECFCs captured (captured cells normalized to total cells interacting with hydrogel surface) [2] | affinity to α5β1 (integrin α5β1)
1 | RGDS (also: PEG conjugate) [ubiquitous cell adhesion peptide] | 103±3 μm/s | 223±14 μm/s | 469±38 μm/s | 741±28 μm/s | 102.2 | 218.7 ± 42.4 | 455.8 ± 86.7 | 739.7 ± 121.9 | supported ECFC rolling at all shear rates | Some ECFC capture events were observed | able to form monolayer and maintain cobble stone morphology |  |  |  |  |  |  |  | 
2 | YIGSRG (also: PEG conjugate) |  |  |  |  | 103.2 | 223.2 ± 38.0 | 487.6 ± 72.5 | 737.0 ± 107.9 | supported ECFC rolling |  | not | 102±9 μm s^−1 | 223±22 μm s^−1 | 484±12 μm s^−1 | 740±10 μm s^−1 |  |  |  | 
3 | RGES (also: PEG conjugate) |  |  |  |  |  |  |  |  | did not support ECFC rolling |  |  |  |  |  |  |  |  |  | 
4 | HSDVHK [Peptide P11, synthesized as HSDVHKG] |  |  |  |  | 127.5 | 251.0 ± 41.2 | 508.0 ± 86.5 | 787.6 ± 102.1 |  |  | not |  |  |  |  | only able to support ECFC adhesion, but not spreading | most competitive for αvβ3 |  | 
5 | PHSRNSGSGSGSGSGRGDSG [PRb] |  |  |  |  | 110.3 | 235.0 ± 36.1 | 485.7 ± 67.5 | 735.1 ± 102.6 |  |  | able to form monolayer and maintain cobble stone morphology |  |  |  |  | supported ECFC adhesion and spreading |  | 1.14% | 
6 | CRRETAWAC (disulfide 1-9 (inferred); also: grafted on PEG hydrogel via acryloyl-PEG) |  |  |  |  | 131.6 | 278.4 ± 28.6 | 550.6 ± 64.1 | 828.4 ± 82.7 |  |  | able to form monolayer and maintain cobble stone morphology |  |  |  |  | supported ECFC adhesion and spreading |  | 3.74% | highest affinity
7 | REDV (also: PEG conjugate) |  |  |  |  | 78.6 | 183.3 ± 43.4 | 353.8 ± 82.0 | 564.3 ± 177.0 | supported ECFC rolling | does not support capture even at low shear rates | not | 79±4 μm s^−1 | 181±6 μm s^−1 | 357±6 μm s^−1 | 560±15 μm s^−1 |  |  |  | 
